Structures are written as SMILES. Structures can show the parent of a compound that is named as a salt.

The text below walks through data of patent publication US8236947B2, “Quinoline derivatives and their use as 5-HT6 ligands” (Glaxo Group Limited, priority 2002, dated 2012).

Chain of human cloned 5-HT6 receptors (P50406 whole entry): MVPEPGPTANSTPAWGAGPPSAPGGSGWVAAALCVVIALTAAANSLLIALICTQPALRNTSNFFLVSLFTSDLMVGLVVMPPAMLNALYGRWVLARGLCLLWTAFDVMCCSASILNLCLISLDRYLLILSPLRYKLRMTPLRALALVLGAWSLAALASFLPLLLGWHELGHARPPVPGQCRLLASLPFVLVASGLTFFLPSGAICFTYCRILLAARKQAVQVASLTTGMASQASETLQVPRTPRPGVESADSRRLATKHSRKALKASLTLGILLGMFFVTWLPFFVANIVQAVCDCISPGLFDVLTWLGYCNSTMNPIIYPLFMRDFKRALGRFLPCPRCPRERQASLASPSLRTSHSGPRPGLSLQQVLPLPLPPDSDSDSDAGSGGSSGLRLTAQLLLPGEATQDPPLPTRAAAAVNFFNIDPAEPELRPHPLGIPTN

One data set addresses human cloned 5-HT6 receptors (Homo sapiens, UniProt P50406). Kind of data set: affinity for the 5-HT6 receptor (procedures outlined in WO98/27081). The data set is classed as binding.
Settings: not given
`O=S(=O)(c1ccccc1)c1cnc2c(N3CCNCC3)c(Cl)ccc2c1` [Example E10, 7-Chloro-3-phenylsulfonyl-8-piperazin-1-yl-quinoline hydrochloride]: the Ki is < 10 nM.

Staying with this data set, now noted: human cloned 5-HT6 receptors; read-out: pKi values at human cloned 5-HT6 receptors (converted).
Take `CCN1CCN(c2cccc3cc(S(=O)(=O)c4ccccc4)cnc23)CC1` [Example E17, 8-(4-Ethyl-piperazin-1-yl)-3-phenylsulfonylquinoline hydrochloride]: the Ki is < 10 nM. As for `O=S(=O)(c1cccc(C(F)(F)F)c1)c1cnc2c(N3CCNCC3)cccc2c1` [Example E9, 8-Piperazin-1-yl-3-(3-trifluoromethyl)phenylsulfonylquinoline hydrochloride], the Ki is < 10 nM. As for `O=S(=O)(c1ccc(Cl)cc1)c1cnc2c(N3CCNCC3)cccc2c1` [Example E6, 3-(4-Chloro)phenylsulfonyl-8-piperazin-1-yl-quinoline hydrochloride], the Ki is < 10 nM. The same measure, in the same setting: the result for `O=S(=O)(c1cccc(F)c1)c1cnc2c(N3CCNCC3)cccc2c1` [Example E7, 3-(3-Fluoro)phenylsulfonyl-8-piperazin-1-yl-quinoline hydrochloride] reads < 10 nM. `O=S(=O)(c1ccccc1)c1cnc2c(N3CCN4CCCC4C3)cccc2c1` (centres unmarked) [Example E37]: the Ki is < 10 nM.

As for `C[C@H]1CN(c2cccc3cc(S(=O)(=O)c4ccccc4)cnc23)CCN1` [Example E13, (S)-8-(3-Methyl)piperazin-1-yl-3-phenylsulfonylquinoline hydrochloride], the Ki was < 10 nM. Turning to `Cc1cc(N2CCNCC2)c2ncc(S(=O)(=O)c3ccccc3)cc2c1` [Example E11, 6-Methyl-3-phenylsulfonyl-8-piperazin-1-yl-quinoline hydrochloride], the Ki was < 10 nM. Still for that read-out and setting: the result for `O=S(=O)(c1cnc2c(N3CCNCC3)cccc2c1)c1ccccc1F` [Example E5, 3-(2-Fluoro)phenylsulfonyl-8-piperazin-1-yl-quinoline hydrochloride] reads < 10 nM.

For the compound `CN1CCN(c2cccc3cc(S(=O)(=O)c4ccccc4)cnc23)CC1` [Example E1, 8-(4-Methyl-piperazin-1-yl)-3-phenylsulfonylquinoline], the Ki was < 10 nM. On the same count and under the same terms, to `C[C@@H]1CN(c2cccc3cc(S(=O)(=O)c4ccccc4)cnc23)CCN1` [Example E12, (R)-8-(3-Methyl)piperazin-1-yl-3-phenylsulfonylquinoline hydrochloride] belongs < 10 nM. Same read-out and setting: the result for `O=S(=O)(c1cnc2c(N3CCNCC3)cccc2c1)c1ccc(Br)cc1OC(F)(F)F` [Example E8, 3-(4-Bromo-2-trifluoromethoxy)phenylsulfonyl-8-piperazin-1-yl-quinoline hydrochloride] reads < 10 nM.

Turning to `O=S(=O)(c1ccccc1)c1cnc2c(N3CCCNCC3)cccc2c1` [Example E14, 8-Homopiperazin-1-yl-3-phenylsulfonylquinoline hydrochloride], the Ki is < 10 nM. Turning to `O=S(=O)(c1ccccc1)c1cnc2c(N3C[C@@H]4C[C@H]3CN4)cccc2c1` [Example E43, 3-Phenylsulfonyl 8-({1S, 4S}2,5-diazabicyclo[2.2.1]heptan-2-yl) quinoline hydrochloride], the Ki is < 10 nM.

On to `O=S(=O)(c1cnc2c(N3CCNCC3)cccc2c1)c1ccccc1Cl` [Example E3, 3-(2-Chloro)phenylsulfonyl-8-piperazin-1-yl-quinoline hydrochloride], for which the Ki is < 10 nM. For `O=S(=O)(c1cccc(Cl)c1)c1cnc2c(N3CCNCC3)cccc2c1` [Example E4, 3-(3-Chloro)phenylsulfonyl-8-piperazin-1-yl-quinoline hydrochloride], the Ki was < 10 nM.

Test system in another data set: not given
Assay: not given
Settings: not given
For the compound `C[C@H]1CN(c2cccc3cc(S(=O)(=O)c4ccccc4)cnc23)CCN1` (as salt: hydrochloride) [Example E13, (S)-8-(3-Methyl)piperazin-1-yl-3-phenylsulfonylquinoline hydrochloride], the melting point is 266 to 269 °C (dec.).

A word on the melting point: it is the temperature, or range, at which the solid turns liquid.
